Laboratory results published in patent US7674803B2, “Thiazolypiperidine derivatives as MTP inhibitors” (Merck Patent GmbH, priority 2003, dated 2010).

Experiments:
[1] = molecular target: T1, microsomal triglyceride transfer protein (MTP) (Mesocricetus auratus, UniProt P55158); experiment: Inhibition of MTP activity (transfer of labelled triglyceride from donor to acceptor particle, SPA); type: biochemical; settings: MTP from golden hamster liver microsomes; [3H]-triolein transfer to LDL-biot; incubation 18-24 hours at 37° C.; read-out: IC50, concentration that allows a 50% inhibition of MTP
T1 construct: The supernatant comprising the soluble MTP is dialysed; from tissue; host or cells: golden hamster liver microsomes, deoxycholate-solubilised
T1 sequence (P55158 19-895): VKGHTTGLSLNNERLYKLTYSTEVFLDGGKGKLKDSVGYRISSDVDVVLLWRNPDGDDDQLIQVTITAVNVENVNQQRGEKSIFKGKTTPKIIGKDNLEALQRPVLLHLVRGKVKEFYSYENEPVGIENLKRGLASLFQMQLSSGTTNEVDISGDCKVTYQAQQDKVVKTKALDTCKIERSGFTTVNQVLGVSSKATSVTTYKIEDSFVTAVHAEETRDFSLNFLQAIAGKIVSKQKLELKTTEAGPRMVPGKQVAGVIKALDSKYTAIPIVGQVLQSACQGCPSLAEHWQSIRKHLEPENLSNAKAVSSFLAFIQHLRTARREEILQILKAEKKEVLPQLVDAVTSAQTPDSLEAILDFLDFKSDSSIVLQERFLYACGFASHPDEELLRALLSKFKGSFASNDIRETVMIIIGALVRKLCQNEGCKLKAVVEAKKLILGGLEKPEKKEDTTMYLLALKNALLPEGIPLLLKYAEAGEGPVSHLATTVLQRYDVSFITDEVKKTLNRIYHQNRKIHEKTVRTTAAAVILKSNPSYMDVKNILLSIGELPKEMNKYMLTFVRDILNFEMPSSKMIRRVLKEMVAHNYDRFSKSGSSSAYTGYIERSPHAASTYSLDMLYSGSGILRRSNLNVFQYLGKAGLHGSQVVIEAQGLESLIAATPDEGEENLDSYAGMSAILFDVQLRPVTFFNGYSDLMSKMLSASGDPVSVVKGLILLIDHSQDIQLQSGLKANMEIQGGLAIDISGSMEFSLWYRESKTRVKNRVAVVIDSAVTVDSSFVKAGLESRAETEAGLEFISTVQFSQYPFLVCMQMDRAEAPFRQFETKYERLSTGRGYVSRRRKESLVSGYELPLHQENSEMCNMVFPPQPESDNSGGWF
Experimental: Analysis of the Inhibition of MTP Activity
The inhibition of the activity of microsomal triglyceride transfer protein (MTP) was tested by using the following operating protocol.
The inhibition of MTP activity with a compound can be quantified by observing the inhibition of the transfer of a labelled triglyceride, from a donor particle to an acceptor particle, in the presence of MTP. The procedure for the preparation of MTP is based on the method by Wetterau and Zilversmit (Biochem. Biophys. Acta (1986) 875, 610). A few grams of golden hamster liver are taken and then rinsed several times in a 250 mM sucrose solution at 0° C. All the following steps proceed at +4° C. A homogenate at a concentration of 50% in 250 mM sucrose is prepared using a Teflon mill and then centrifuged for 10 minutes at 10 000× g at +4° C. The supernatant is then centrifuged at 105 000× g for 75 minutes at +4° C. The supernatant is discarded and the microsomal pellet is taken up in 3 ml (per g of starting liver) of Tris/HCl 150 mM pH 8.0. 1-ml aliquot fractions are stored at −80° C. until the time of use.
After thawing a fraction of microsomes (1 ml), 12 ml of refrigerated Tris/HCl 50 mM, KCl 50 mM, MgCl2 5 mM pH 7.4 buffers and 1.2 ml of deoxycholate (0.54% in water) are added. After incubation for 30 minutes at +4° C. with gentle agitation, the suspension is centrifuged at 105 000× g for 75 minutes. The supernatant comprising the soluble MTP is dialysed against Tris/HCl 150 mM, NaCl 40 mM, EDTA 1 mM, 0.02% sodium azide pH 7.4 buffer (5 times one litre over 2-3 days). The MTP is stored at +4° C., is stable for at least 30 days and is used in unmodified form in the test.
The donor particles (liposomes) are prepared from 208 μL of L-phosphatidylcholine at a concentration of 10 mg/ml in chloroform, and 480 μL of. [3H]-triolein at a concentration of 0.5 mCi/ml in toluene. After stirring, the solution is evaporated under nitrogen, taken up in 6 ml of Tris/HCl 50 mM, KCl 50 mM, MgCl2 5 mM pH 7.4 buffer and incubated in an ultrasound bath for 30 minutes at room temperature. The liposomes are stored at +4° C. and sonicated again for 10 minutes before each use.
The acceptor particles are biotinylated low density lipoproteins (LDL-biot). These particles are supplied by the company Amersham.
The reaction mixture is prepared in untreated 1/2 well white plates (Corning Costar) by addition, in the following order, of: 5 μL of HEPES 50 mM, NaCl 150 mM, BSA 0.1% (w/v), 0.05% sodium azide (w/v), pH 7.4 buffer; 5 μL of liposomes; 5 μL of LDL-biot; 5 μL of test products in DMSO; 5 μL of MTP. After incubation for 18-24 hours at 37° C., the reaction is stopped by adding 100 μL of Amersham SPA (Scintillation Proximity Assay) beads coupled to streptavidin, and the radioactivity is counted using a Top Count (Packard) machine at least one hour later. The inhibition of the transfer of the triglycerides with a compound is reflected by a reduction in the transferred radioactivity.
The results are expressed in terms of the IC50, i.e. the concentration that allows a 50% inhibition of MTP.

[2] = tested on: apo B secretion in HepG2 cells; experiment: Inhibition of apo B secretion in HepG2 cells (sandwich-ELISA); type: cell-based; settings: 24 hours incubation, culture supernatant tested by ELISA specific for human apo B, read-out: IC50, concentration that produces a 50% inhibition of apo B secretion in the HepG2 cells
Experimental: Analysis of the Reaction of apo B in the HepG2 Human Cell Line:
The activity of a compound according to the invention can be evaluated by measuring the inhibition of apo B secretion in HepG2 cells.
The HepG2 cells (ECACC—No. 85011430) are used as model in the study of the in vitro hepatic secretion of lipoproteins (Dixon J. and Ginsberg H., J. i Lipid. Res., 1993, 34, 167-179).
The HepG2 cells are cultured in Dulbecco's modified Eagle's medium comprising 10% foetal calf serum (DMEM and FBS-Gibco) in 96-well plates under an atmosphere of 5% carbon dioxide for 24 hours (about 70% confluence).
The test compounds are dissolved at a concentration of 2 or 10 mM in dimethyl sulfoxide (DMSO). Serial dilutions (1:3.16) are made in DMSO and are added (1:200—Robot Multimek Beckman) to the growth medium (200 μL) and then finally incubated for 24 hours in the various wells containing the HepG2cells.
The 24-hour culture supernatant diluted to 1:5 (phosphate-buffered saline: PBS comprising 1% bovine serum albumin) is tested according to a sandwich-ELISA method specific for human apo B.
The results are expressed in terms of IC50, i.e. the concentration that produce a 50% inhibition of apo B secretion in the HepG2 cells.

CCN(C(=O)c1csc(C2CCN(C(=O)c3cccc(C)c3-c3ccc(OC(F)(F)F)cc3)CC2)n1)C(C)C(=O)c1ccccc1 (stereo not shown) [Example 1, 2-[1-(6-Methyl-4’-trifluoromethoxybiphenyl-2-carbonyl)piperid-4-yl]thiazol-4-carbonyl[N-ethyl-N-(1-methyl-2-oxo-2-phenylethyl)]amide]
IC50 [1]: 51 nM
IC50 [2]: 20 nM

CCN(C(=O)c1csc(C2CCN(C(=O)c3ccccc3-c3ccc(C(F)(F)F)cc3)CC2)n1)C(C)C(=O)c1ccccc1 (stereo not shown) [Example 3]
IC50 [1]: 57 nM
IC50 [2]: 12 nM

CC(C(=O)c1ccccc1)N(C)C(=O)c1csc(C2CCN(C(=O)c3ccccc3-c3ccc(C(F)(F)F)cc3)CC2)n1 (stereo not shown) [Example 4]
IC50 [1]: 720 nM
IC50 [2]: 307 nM

C[C@H](C(=O)c1ccccc1)N(C)C(=O)c1csc(C2CCN(C(=O)c3ccccc3-c3ccc(C(F)(F)F)cc3)CC2)n1 [Example 5]
IC50 [1]: 660 nM
IC50 [2]: 286 nM

CCN(C(=O)c1csc(C2CCN(C(=O)c3ccccc3-c3ccc(C(F)(F)F)cc3)CC2)n1)C(C)C(=O)c1cccnc1 (stereo not shown) [Example 6]
IC50 [1]: 385 nM
IC50 [2]: 288 nM

CCN(C(=O)c1csc(C2CCN(C(=O)c3ccccc3-c3ccc(C(F)(F)F)cc3)CC2)n1)C(C#N)c1ccccc1 (stereo not shown) [Example 9]
IC50 [1]: 58 nM
IC50 [2]: 7 nM

CC(C)N(C(=O)c1csc(C2CCN(C(=O)c3ccccc3-c3ccc(C(F)(F)F)cc3)CC2)n1)C(C#N)c1ccccc1 (stereo not shown) [Example 10]
IC50 [1]: 167 nM
